The values that follow come from patent publication EP0819689A1, “5-substituted (2H) chromenes” (Byk Gulden Lomberg Chemische Fabrik GmbH, priority 1996, dated 1998).

For the test, the system named is PDE IV. The test can be described thus: Inhibition of PDE IV activity (method of Bauer and Schwabe, adapted to microtitre plates). Type of test: biochemical. As to conditions: Hemmung der PDE IV-Aktivität. The text has this: Der Aktivitätstest wurde nach der Methode von Bauer und Schwabe durchgeführt, die auf Mikrotiterplatten adaptiert wurde (Naunyn-Schmiedeberg's Arch. Pharmacol. 1980, 311, 193-198). Hierbei erfolgt im ersten Schritt die PDE-Reaktion. In einem zweiten Schritt wird das entstandene 5'-Nukleotid durch eine 5'-Nukleotidase des Schlangengiftes von ophiophagus hannah (King Cobra) zum ungeladenen Nukleosid gespalten. Im dritten Schritt wird das Nukleosid auf Ionenaustauschsäulen vom verbliebenen geladenen Substrat getrennt. Die Säulen werden mit 2 ml 30 mM Ammoniumformiat (pH 6,0) direkt in Minivials eluiert, in die noch 2 ml Szintillatorflüssigkeit zur Zählung gegeben wird.
Die für die erfindungsgemäßen Verbindungen ermittelten Hemmwerte ergeben sich aus der folgenden Tabelle A, in der die Nummern der Verbindungen den Nummern der Beispiele entsprechen. Tabelle A
Regarding `COc1ccc(C(O)Cc2ccncc2)c2c1OC1(C=C2)CCCC1` (racemic) [Verbindung 1, (±)-Spiro{5-[1-Hydroxy-2-(pyrid-4-yl)ethyl]-8-methoxy-[2H]chromen-2,1'-Cyclopentan}], the “PDE 4 -logIC50” value is listed as 5,88.
As for `COc1ccc(CC(C#N)c2ccncc2)c2c1OC1(CCCC1)CC2` (racemic) [Verbindung 8, (±)-Spiro{5-[2-Cyano-2-(pyrid-4-yl)ethyl]-8-methoxychroman}], the figure is 6,95; as for `COc1ccc(CC(C#N)c2ccncc2)c2c1OC(C)(C)CC2` (racemic) [Verbindung 9, (±)-5-[2-Cyano-2-(pyrid-4-yl)ethyl]-8-methoxy-2,2-dimethylchroman], 7,01; as for `COc1ccc(CC(C#N)c2ccccn2)c2c1OC(C)(C)CC2` (racemic) [Verbindung 10, (±)-5-[2-Cyano-2-(pyrid-2-yl)ethyl]-8-methoxy-2,2-dimethylchroman], 6,76.
In the case of `COc1ccc(/C=C/c2ccncc2)c2c1OC1(C=C2)CCCC1` [Verbindung 2, (E)-Spiro{5-[2-(pyrid-4-yl)ethenyl]-8-methoxy-[2H]chromen-2,1'-Cyclopentan}], the “PDE 4 -logIC50” value is reported as 7,10.
As for `COc1ccc(CCc2ccncc2)c2c1OC1(CCCC1)CC2` [Verbindung 3, Spiro{5-[2-(pyrid-4-yl)ethyl]-8-methoxychroman-2.1'-Cyclopentan}], the figure is 7,59; as for `COc1ccc(/C=C(\C#N)c2ccncc2)c2c1OC1(C=C2)CCCC1` [Verbindung 4, (Z)-Spiro{5-[2-Cyano-2-(pyrid-4-yl)ethenyl]-8-methoxy-[2H]chromen-2.1'-Cyclopentan}], 6,12; as for `COc1ccc(/C=C(\C#N)c2ccncc2)c2c1OC(C)(C)C=C2` [Verbindung 5, (Z)-5-[2-Cyano-2-(pyrid-4-yl)ethenyl]-8-methoxy-2,2-dimethyl-[2H]chromen], 6,73.
Regarding `COc1ccc(/C=C(\C#N)c2cccnc2)c2c1OC(C)(C)C=C2` [Verbindung 6, (Z)-5-[2-Cyano-2-(pyrid-3-yl)ethenyl]-8-methoxy-2,2-dimethyl-[2H]chromen], the “PDE 4 -logIC50” value is reported as 6,36.
With `COc1ccc(/C=C(\C#N)c2ccccn2)c2c1OC(C)(C)C=C2` [Verbindung 7, (Z)-5-[2-Cyano-2-(pyrid-2-yl)ethenyl]-8-methoxy-2,2-dimethyl-[2H]chromen], the “PDE 4 -logIC50” value is listed as 5,95.
